{
  "source": "patent US6046219A",
  "about": "“Method for the treatment of conditions mediated by collagen formation together with cell proliferation by application of inhibitors of protein hydroxylation” (Cornell Research Foundation, Inc., priority 1997, dated 2000)",
  "key": {"[1]": {"system": "type III procollagen", "assay": "Type III procollagen secretion by SMC", "type": "cell-based", "conditions": "human SMC, FIG. 6a", "experimental": "Type III collagen biosynthesis (FIG. 6a) was assessed by a commercial radioimmunoassay using a monoclonal antibody to the N-terminal propeptide of type III procollagen. Plasminogen activator inhibitor-1 (\"PAI-1\") activity was measured by a standard enzymatic method. Type I collagen biosynthesis (FIG. 6b) was assessed by routine Western blot using a monoclonal antibody to the C-terminal propeptide of type I procollagen.\nSMC or MRC-5 cells (3-5×10^6 cells/35 mm well), incubated in serum-free DMEM containing 50 μg/ml sodium ascorbate and 20 μg/ml β-aminopropionitrile, are exposed for 24 hours to increasing concentrations of hydroxypyridones. After centrifugation, to clear any cellular debris, these supernatants are used to determine the levels of type I and III procollagens, using commercially available radioimmunoassays (Incstar and Behringwerke, respectively).\nHuman SMC (3-5×10^5 cells/35 mm well), grown to confluency and incubated in serum-free DMEM containing 50 μg/ml sodium ascorbate and 20 μg/ml β-aminopropionitrile, were exposed for 24 hours to increasing concentrations of test compounds. […] Type I procollagen biosynthesis also was quantified by Western analysis in the following manner. […] Immunoblots were scanned with a UMAX UC630 flatbed scanner and quantified densitometrically using standard software."}, "[2]": {"target": "T1, purified human prolyl 4-hydroxylase (Homo sapiens, UniProt P13674)", "T1 construct": "made in house; host or cells: Spodoptera frugiperda insect cells (baculovirus, co-expression of α- and β-subunits)", "T1 sequence (P13674 18-534)": "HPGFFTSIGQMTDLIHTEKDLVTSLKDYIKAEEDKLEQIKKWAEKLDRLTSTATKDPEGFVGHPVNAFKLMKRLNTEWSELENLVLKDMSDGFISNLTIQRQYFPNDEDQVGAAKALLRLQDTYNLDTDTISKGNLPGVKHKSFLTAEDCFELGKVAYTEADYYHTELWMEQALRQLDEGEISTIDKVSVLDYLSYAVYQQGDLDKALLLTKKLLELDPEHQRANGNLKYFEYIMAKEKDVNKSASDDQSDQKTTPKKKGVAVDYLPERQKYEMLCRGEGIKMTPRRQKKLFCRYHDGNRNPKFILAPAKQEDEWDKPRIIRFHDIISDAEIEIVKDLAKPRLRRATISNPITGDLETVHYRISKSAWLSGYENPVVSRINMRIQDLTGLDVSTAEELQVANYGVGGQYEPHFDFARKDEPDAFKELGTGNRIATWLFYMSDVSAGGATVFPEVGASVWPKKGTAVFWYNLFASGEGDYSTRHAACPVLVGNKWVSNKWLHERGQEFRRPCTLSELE", "T1 sequence (P07237 18-508 partner)": "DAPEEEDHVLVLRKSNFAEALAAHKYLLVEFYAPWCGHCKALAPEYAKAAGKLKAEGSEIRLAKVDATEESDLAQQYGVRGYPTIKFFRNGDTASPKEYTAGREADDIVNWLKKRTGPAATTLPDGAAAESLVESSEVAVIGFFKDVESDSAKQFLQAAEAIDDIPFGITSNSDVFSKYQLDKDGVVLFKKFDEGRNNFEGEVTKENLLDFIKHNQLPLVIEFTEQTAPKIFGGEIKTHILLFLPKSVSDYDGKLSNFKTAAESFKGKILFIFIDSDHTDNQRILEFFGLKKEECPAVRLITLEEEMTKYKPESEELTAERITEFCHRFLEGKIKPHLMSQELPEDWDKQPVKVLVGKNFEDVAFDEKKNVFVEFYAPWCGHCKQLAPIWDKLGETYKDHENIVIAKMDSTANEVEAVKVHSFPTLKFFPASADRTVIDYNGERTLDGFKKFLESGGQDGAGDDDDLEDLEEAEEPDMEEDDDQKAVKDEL", "assay": "Assay of purified human prolyl 4-hydroxylase (14CO2 release from 2-oxoglutarate, cell-free)", "type": "biochemical", "experimental": "The effect on the enzyme was determined in a cell-free system by measuring the oxidative decarboxylation of its cofactor 2-oxoglutarate via release of radiolabeled carbon dioxide in a standard reaction mixture also containing ascorbate, ferrous sulfate, and unhydroxylated peptide substrate.\n(§1) The inhibitory action of the substances according to the invention, for example on collagen secretion or cell proliferation, can be tested in direct assays of the enzymes mediating the pivotal protein hydroxylations for these biological processes, such as prolyl 4-hydroxylase and deoxyhypusyl hydroxylase. This entails the enzymatic hydroxylation of the appropriate protein precursor, either by the cellular or the purified enzyme, in the presence or absence of compounds of Formulae (I) or (II), with concomitant determination of co-substrate utilization by these enzymes or subsequent isolation of the hydroxylated amino acid and its unhydroxylated precursor. In this manner, the inhibitory potency of any given compound can be measured in the cell-free system, in cell culture, or in tissue, and is expressed as the inhibitory dose that gives a 50% reduction of the enzyme-mediated reaction (ID50). Enzyme is tested in analogy to the method of A. Abbruzzese, H. M. Hanauske-Abel, et al., Biochem. Biophys. Acta, 1077, 159-166 (1991) and of K. Majamaa, H. M. Hanauske-Abel, et al., Eur. J. Biochem. 138, 239-245 (1984), which are hereby incorporated by reference. Table III lists the ID50 values of some of the compounds according to the invention, using purified human prolyl 4-hydroxylase and cellular human deoxyhypusyl hydroxylase as representative protein hydroxylases.\nThe inhibiting effect of hydroxypyridones on the collagen-hydroxylating enzyme was studied in a cell-free system.\nAssay of purified human prolyl 4-hydroxylase\nThe native α2 β2 -tetrameric enzyme was purified to homogeneity by poly(L-proline) affinity chromatography and DEAE chromatography from the supernatant of Spodoptera frugiperda insect cells cotransfected with recombinant baculovirus transfer vectors for both the human α- and β-subunits. Enzyme activity was determined by trapping of ^14 CO2 released from 2-oxo[1-^14 C][glutarate] according to the procedure of Majamaa, et al., Eur. J. Biochem., 138:239-245 (1984), which is hereby incorporated by reference. Briefly, all incubations were run for 60 minutes at 37° C. in a final volume of 1.0 ml per test sample, containing 0.1 μg enzyme, 0.1 mg heat-denatured (Pro-Pro-Gly)10 ×9 H2 O as hydroxylatable substrate, 0.1 mM 2-oxo[1-^14 C][glutarate] adjusted to 60,000 dpm by mixing with the unlabeled 2-oxoglutarate as cosubstrate, and cofactors (1.6 mM ascorbate, 0.05 mM ferrous sulfate, 0.08 mM dithiothreitol, 2 mg bovine serum albumin, 5 μL catalase). Assays are performed with only one of the active compounds at any given time."}, "[3]": {"target": "T2, cellular human deoxyhypusyl hydroxylase (Homo sapiens, UniProt Q9BU89)", "T2 construct": "endogenous in cells; host or cells: cultured human cells (smooth muscle cells, B-lymphocytes)", "T2 sequence (Q9BU89 1-302)": "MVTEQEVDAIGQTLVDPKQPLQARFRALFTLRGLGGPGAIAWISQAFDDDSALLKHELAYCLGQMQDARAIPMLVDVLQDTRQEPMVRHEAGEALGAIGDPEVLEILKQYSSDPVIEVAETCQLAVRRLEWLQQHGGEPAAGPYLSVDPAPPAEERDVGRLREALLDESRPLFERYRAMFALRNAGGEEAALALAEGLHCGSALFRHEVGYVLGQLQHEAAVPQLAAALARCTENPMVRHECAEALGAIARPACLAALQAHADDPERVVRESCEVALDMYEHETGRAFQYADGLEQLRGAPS", "assay": "Cellular human deoxyhypusyl hydroxylase (DOHH assay, 3H-spermidine labeling)", "type": "cell-based", "description": "as §1\nThe inhibiting effect of hydroxypyridones on the eIF-5A-hydroxylating enzyme was studied in cultured human cells (i.e. smooth muscle cells, B-lymphocytes).\nThe cellular conversion of the precursor deoxyhypusine to the hydroxylated hypusine in cells was examined, after preincubation with the inhibitor for 60 minutes, by labeling the human cells with ^3 H-spermidine (5 μCi/ml) in 25 cm^2 flasks (1×10^6 cells/flask) for 24 hours prior to cell lysis, precipitation with 10% TCA containing 1 mM each of putrescine, spermidine, and spermine, and hydrolysis in 6 N HCl at 110° C. for 16 hours. The hydrolysate was analyzed for labeled amino acids on an amino acid analyzer by published methods (Park et al., J. Biol. Chem., 257:7217-7222 (1982), which is hereby incorporated by reference). The retention of purified hypusine and deoxyhypusine was determined from standards."}},
  "note": "Entries after “also recorded” stand apart in the source; their conditions may differ.",
  "data": [
    {"compound": "N[C@@H](Cn1ccc(=O)c(O)c1)C(=O)O", "note": "[L-Mimosine]", "values": [
      {"measurement": "inhibition of secretion of procollagen type III", "setting": "[1]", "result": "potent inhibitor; also recorded: selectively suppressive effect"},
      {"measurement": "inhibition of purified human prolyl 4-hydroxylase", "setting": "[2]; cell-free system, FIG. 1", "result": "directly inhibit"},
      {"measurement": "Prolyl 4-hydroxylase ID50 (purified)", "setting": "[2]; purified human enzyme, inhibitory dose that gives 50% reduction of the enzyme-mediated reaction, unit assumed", "result": 120, "unit": "µM"},
      {"measurement": "inhibition of deoxyhypusyl hydroxylase", "setting": "[3]; FIG. 3, assayed in vitro", "result": "directly inhibit"},
      {"measurement": "Deoxyhypusyl hydroxylase ID50 (cellular)", "setting": "[3]; cellular human enzyme, inhibitory dose that gives 50% reduction of the enzyme-mediated reaction, unit assumed", "result": 65, "unit": "µM"}
    ]}
  ]
}
